Results published in patent publication US20120214862A1, “MODULATION OF FACTOR 7 EXPRESSION” (ISIS Pharmaceuticals, Inc., priority 2009, published 2012).
In the oligonucleotide strings, read from the 5' end, every base follows the letter of its sugar. An asterisk marks phosphorothioate; unmarked linkages are phosphodiester. Other units and linkages are bracketed, terminal groups are in braces. A string of capitals states the bases alone. e = 2'-O-(2-methoxyethyl) (MOE); [5mC] = 5-methylcytosine; d = 2'-deoxy (DNA)

System: human Factor 7 mRNA
Assay: Antisense inhibition of human Factor 7 mRNA in HepB3 cells, lipofectin, 50 nM, real-time RT-PCR
Type: cell-based
Conditions: HepB3 cells; for % Inhibition (human Factor 7 mRNA): 50 nM, ~24 h
Method: Antisense oligonucleotides targeted to a Factor 7 nucleic acid were tested for their effects on Factor 7 mRNA in vitro. Cultured HepB3 cells at a density of 4,000 cells per well were transfected using lipofectin reagent with 50 nM antisense oligonucleotide. After a treatment period of approximately 24 hours, RNA was isolated from the cells and Factor 7 mRNA levels were measured by real-time RT-PCR, as described herein. Factor 7 mRNA levels were adjusted according to total RNA content as measured by RIBOGREEN®. Results are presented as percent inhibition of Factor 7, relative to untreated control cells.
(§1) Antisense oligonucleotides targeted to a Factor 7 nucleic acid were designed and tested for their effects on Factor 7 mRNA in vitro. Certain antisense oligonucleotides from Table 3 were also retested for their effects on Factor 7 mRNA in vitro. Cultured HepB3 cells at a density of 4,000 cells per well were transfected using lipofectin reagent with 50 nM antisense oligonucleotide. After a treatment period of approximately 24 hours, RNA was isolated from the cells and Factor 7 mRNA levels were measured by real-time RT-PCR, as described herein. Human Factor 7 primer probe set RTS 2927 was used to measure mRNA levels. Factor 7 mRNA levels were adjusted according to total RNA content as measured by RIBOGREEN®. Results are presented as percent inhibition of Factor 7, relative to untreated control.
as §1, with “tested” for “tested for their effects on Factor 7 mRNA in vitro. Certain antisense oligonucleotides from Table 3 were also retested”
These gapmers were designed by creating gapmers shifted slightly upstream and downstream (i.e. “microwalk”) of the original gapmers from Table 7. Gapmers were also created with various motifs, e.g. 5-10-5 MOE, 3-14-3 MOE, and 2-13-5 MOE. These gapmers were tested in vitro. Cultured HepB3 cells at a density of 4,000 cells per well were transfected using lipofectin reagent with 50 nM antisense oligonucleotide. After a treatment period of approximately 24 hours, RNA was isolated from the cells and Factor 7 mRNA levels were measured by real-time RT-PCR. Factor 7 mRNA levels were adjusted according to total RNA content, as measured by RIBOGREEN®. Results are presented as percent inhibition of Factor 7, relative to untreated control cells.

[1] = Example 1, lipofectin, relative to untreated control cells
[2] = gapmers targeted to nucleobases 11830 to 11869 of SEQ ID NO: 1 (Table 9)
[3] = lipofectin, 50 nM antisense oligonucleotide, approximately 24 hours, primer probe set RTS 2927, relative to untreated control
[4] = gapmers targeted to nucleobases 13760 to 13789 of SEQ ID NO: 1 (Table 10)
[5] = Example 4, lipofectin, relative to untreated control

Substance: 407615 (antisense eG*eA*e[5mC]*eA*e[5mC]*d[5mC]*d[5mC]*d[5mC]*dG*dT*d[5mC]*dT*dG*d[5mC]*d[5mC]*eA*eG*e[5mC]*eA*eG) [compound 407615]
- % Inhibition (human Factor 7 mRNA) [1]: 65%

Substance: 407619 (antisense eA*eG*eA*eA*eT*dA*dG*dG*dT*dA*dT*dT*dT*dT*dT*e[5mC]*e[5mC]*eA*e[5mC]*eA) [compound 407619]
- % Inhibition (human Factor 7 mRNA) [1]: 64%

Substance: 407640 (antisense eG*e[5mC]*eA*eT*eG*dA*dG*d[5mC]*dT*dT*dT*dT*dG*d[5mC]*dA*eG*e[5mC]*e[5mC]*eA*e[5mC]) [compound 407640]
- % Inhibition (human Factor 7 mRNA) [1]: 79%

Substance: 422233 (antisense eG*eG*dT*d[5mC]*dA*dG*dG*dG*d[5mC]*dT*dG*dG*dT*dT*dT*eT*eG*eG*eA*eG) [compound 422233]
- % Inhibition of human Factor 7 mRNA levels [2]: 46%

Substance: 407632 (antisense eT*e[5mC]*e[5mC]*eG*eT*dT*d[5mC]*dG*dG*dG*d[5mC]*dA*dG*dG*d[5mC]*eA*eG*eA*eG*eG) [compound 407632]
- % Inhibition (human Factor 7 mRNA) [1]: 46%

Substance: 407930 (antisense e[5mC]*eA*eA*eT*eG*dA*dA*dG*dG*d[5mC]*dA*dG*dA*dG*d[5mC]*eA*eG*e[5mC]*eA*eG) [compound 407930]
- % Inhibition (human Factor 7 mRNA) [1]: 70%

Substance: 416456 (antisense e[5mC]*eT*eG*e[5mC]*eG*d[5mC]*d[5mC]*dA*d[5mC]*d[5mC]*d[5mC]*dG*d[5mC]*d[5mC]*dG*eG*e[5mC]*eT*e[5mC]*eT) [compound 416456]
- % Inhibition of human Factor 7 mRNA levels [3]: 58%
- % Inhibition of human Factor 7 mRNA levels [4]: 50%

Substance: 416484 (antisense eT*eA*e[5mC]*eA*eG*d[5mC]*d[5mC]*dT*d[5mC]*dA*dA*dA*d[5mC]*dA*dT*e[5mC]*eT*eA*eT*e[5mC]) [compound 416484]
- % Inhibition of human Factor 7 mRNA levels [3]: 0%

Substance: 416483 (antisense eT*eG*eT*eG*eA*dG*dG*dG*dT*dT*d[5mC]*dA*dT*dT*dT*e[5mC]*eA*eG*eT*eG) [compound 416483]
- % Inhibition of human Factor 7 mRNA levels [3]: 22%

Substance: 416551 (antisense e[5mC]*eA*eG*eA*eA*dA*d[5mC]*dA*d[5mC]*d[5mC]*d[5mC]*dA*dT*d[5mC]*d[5mC]*eT*e[5mC]*eT*eG*eA) [compound 416551]
- % Inhibition of human Factor 7 mRNA levels [3]: 19%

Substance: 422194 (antisense e[5mC]*eT*eG*dA*dG*d[5mC]*dG*d[5mC]*dG*dG*dA*dA*dG*dA*dA*dG*dG*eG*eA*e[5mC]) [compound 422194]
- % Inhibition (human Factor 7 mRNA) [5]: 11%

Substance: 422216 (antisense eA*eG*eT*dT*d[5mC]*dT*dG*d[5mC]*dA*dG*dG*dA*dG*d[5mC]*dG*dG*d[5mC]*e[5mC]*eT*eA) [compound 422216]
- % Inhibition of human Factor 7 mRNA levels (gapmers (5-10-5, 3-14-3, 2-13-5 MOE) targeted to nucleobases 4868 to 4899 of SEQ ID NO: 1): 68%

Substance: 422182 (antisense e[5mC]*eG*e[5mC]*d[5mC]*dA*d[5mC]*d[5mC]*d[5mC]*dG*d[5mC]*d[5mC]*dG*dG*d[5mC]*dT*d[5mC]*dT*eG*e[5mC]*eT) [compound 422182]
- % Inhibition of human Factor 7 mRNA levels [4]: 11%

Substance: 416555 (antisense eA*eA*eA*eG*eA*dT*d[5mC]*dA*dG*dG*d[5mC]*dA*dA*dA*dG*eA*eT*e[5mC]*e[5mC]*e[5mC]) [compound 416555]
- % Inhibition of human Factor 7 mRNA levels [3]: 6%

Substance: 416542 (antisense e[5mC]*eA*eG*eG*eG*dT*dG*d[5mC]*d[5mC]*d[5mC]*dA*dT*d[5mC]*d[5mC]*dT*eA*eG*eT*e[5mC]*eA) [compound 416542]
- % Inhibition of human Factor 7 mRNA levels [3]: 56%

Substance: 407944 (antisense e[5mC]*e[5mC]*eA*eG*eT*dG*dG*dG*dT*dG*dG*d[5mC]*dA*dG*dG*e[5mC]*eA*e[5mC]*e[5mC]*eA) [compound 407944]
- % Inhibition (human Factor 7 mRNA) [1]: 59%

Substance: 422263 (antisense eG*eG*dA*dA*dG*dA*dA*dG*dG*dG*dA*d[5mC]*dG*dG*dA*eA*eG*eG*eT*eG) [compound 422263]
- % Inhibition (human Factor 7 mRNA) [5]: 19%

Substance: 422106 (antisense e[5mC]*eT*eG*eG*e[5mC]*dT*dG*dA*dG*dG*dA*dG*dA*d[5mC]*dA*eA*eT*eG*eG*eT) [compound 422106]
- % Inhibition of human Factor 7 mRNA levels [2]: 32%

Substance: 416486 (antisense eA*eT*eT*eG*eA*d[5mC]*dA*dA*dG*dG*dG*d[5mC]*dT*dG*dT*eG*eG*e[5mC]*eA*eG) [compound 416486]
- % Inhibition of human Factor 7 mRNA levels [3]: 12%

Substance: 407905 (antisense e[5mC]*e[5mC]*eA*eG*eT*dT*d[5mC]*dT*dT*dG*dA*dT*dT*dT*dT*eG*eT*e[5mC]*eG*eA) [compound 407905]
- % Inhibition (human Factor 7 mRNA) [1]: 40%

Substance: 422151 (antisense eT*eG*e[5mC]*dA*dT*dG*dG*dT*dG*dA*dT*dG*d[5mC]*dT*dT*d[5mC]*dT*eG*eA*eA) [compound 422151]
- % Inhibition of human Factor 7 mRNA levels (gapmers targeted to nucleobases 15188 to 15211 of SEQ ID NO: 1 (Table 13)): 68%

Substance: 422199 (antisense eG*eG*eT*dT*dA*d[5mC]*dT*dG*dA*dG*d[5mC]*dG*d[5mC]*dG*dG*dA*dA*eG*eA*eA) [compound 422199]
- % Inhibition (human Factor 7 mRNA) [5]: 65%

Substance: 407958 (antisense eG*e[5mC]*e[5mC]*eG*eT*dG*d[5mC]*dT*dT*dG*d[5mC]*d[5mC]*dG*dG*dA*eG*eT*e[5mC]*eT*eG) [compound 407958]
- % Inhibition (human Factor 7 mRNA) [1]: 58%

Substance: 403093 (antisense eG*eA*eG*eA*e[5mC]*d[5mC]*d[5mC]*dT*dG*dG*dT*dG*dT*dA*d[5mC]*eA*e[5mC]*e[5mC]*e[5mC]*e[5mC]) [compound 403093]
- % Inhibition (human Factor 7 mRNA) [1]: 75%

Substance: 407909 (antisense e[5mC]*e[5mC]*eA*eT*e[5mC]*d[5mC]*dG*dA*dG*dT*dA*dG*d[5mC]*d[5mC]*dG*eG*e[5mC]*eA*e[5mC]*eA) [compound 407909]
- % Inhibition (human Factor 7 mRNA) [1]: 77%

Substance: 422170 (antisense eG*e[5mC]*eT*dG*dA*dG*dG*dA*dG*dA*d[5mC]*dA*dA*dT*dG*dG*dT*e[5mC]*eA*eG) [compound 422170]
- % Inhibition of human Factor 7 mRNA levels [2]: 28%

Substance: 416475 (antisense e[5mC]*eT*e[5mC]*eA*eG*d[5mC]*dT*dG*dG*dG*d[5mC]*dT*dG*dT*d[5mC]*eT*eG*e[5mC]*e[5mC]*eT) [compound 416475]
- % Inhibition of human Factor 7 mRNA levels [3]: 70%

Substance: 422262 (antisense e[5mC]*eT*dG*d[5mC]*dG*d[5mC]*d[5mC]*dA*d[5mC]*d[5mC]*d[5mC]*dG*d[5mC]*d[5mC]*dG*eG*e[5mC]*eT*e[5mC]*eT) [compound 422262]
- % Inhibition of human Factor 7 mRNA levels [4]: 0%

Substance: 422188 (antisense eG*e[5mC]*eG*dG*dA*dA*dG*dA*dA*dG*dG*dG*dA*d[5mC]*dG*dG*dA*eA*eG*eG) [compound 422188]
- % Inhibition (human Factor 7 mRNA) [5]: 37%

Substance: 422243 (antisense eA*eG*dG*dA*dG*dA*d[5mC]*dA*dA*dT*dG*dG*dT*d[5mC]*dA*eG*eG*eG*e[5mC]*eT) [compound 422243]
- % Inhibition of human Factor 7 mRNA levels [2]: 62%

Substance: 422245 (antisense eT*eG*dA*dG*dG*dA*dG*dA*d[5mC]*dA*dA*dT*dG*dG*dT*e[5mC]*eA*eG*eG*eG) [compound 422245]
- % Inhibition of human Factor 7 mRNA levels [2]: 24%

Substance: 422192 (antisense eG*eA*eG*d[5mC]*dG*d[5mC]*dG*dG*dA*dA*dG*dA*dA*dG*dG*dG*dA*e[5mC]*eG*eG) [compound 422192]
- % Inhibition (human Factor 7 mRNA) [5]: 27%

Substance: 422133 (antisense eA*eG*e[5mC]*eA*eG*d[5mC]*d[5mC]*dT*dG*dA*dG*dG*d[5mC]*d[5mC]*dA*eG*e[5mC]*eA*eG*eA) [compound 422133]
- % Inhibition of human Factor 7 mRNA levels (gapmers targeted to nucleobases 14707 to 14732 of SEQ ID NO: 1 (Table 11)): 65%

Substance: 407667 (antisense eG*eT*eG*eG*e[5mC]*d[5mC]*dA*dT*dG*d[5mC]*d[5mC]*d[5mC]*dT*dG*dG*eG*eT*e[5mC]*eA*eG) [compound 407667]
- % Inhibition (human Factor 7 mRNA) [1]: 71%

Substance: 416434 (antisense e[5mC]*eT*eG*eT*eA*dA*dG*dA*dA*dA*dT*d[5mC]*d[5mC]*dA*dG*eA*eA*e[5mC]*eA*eG) [compound 416434]
- % Inhibition of human Factor 7 mRNA levels [3]: 0%

Substance: 407649 (antisense eG*eA*eG*eG*eG*dT*dT*d[5mC]*dA*dT*dT*dT*d[5mC]*dA*dG*eT*eG*eA*eT*eG) [compound 407649]
- % Inhibition (human Factor 7 mRNA) [1]: 24%
